According to patent US11702422B2, “Imidazopyridazines as modulators of IL-17” (Janssen Pharmaceutica NV, priority 2020, dated 2023):

Experiments:
[1] = molecular target: IL-17A(FLAG-Tagged): IL-17RA(His-Tagged) (Homo sapiens, UniProt Q16552, K93Q); assay: IL-17A(FLAG-Tagged): IL-17RA(His-Tagged) Binding Disruption Eu-HTRF Assay; conditions: IL-17A/IL-17RA binding disruption, simple average if tested more than once
Procedure, shortened: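 IC50 comes from a one-site competition fit of the HTRF 665/620 nm ratio. Compound dilutions (2-fold, 22 points) were held 1 h rt with FLAG-tagged IL-17A dimer, then His-tagged IL-17RA plus Eu-cryptate anti-FLAG and D2 anti-His antibodies were added for 2 h rt.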

[2] = system: IL-17A-induced G-CSF production in human normal keratinocyte (NHK); assay: NHK Assay: IL-17A-induced G-CSF production in human normal keratinocytes; assay type: cell-based; conditions: 24 h, adult normal human keratinocytes, IL-17A 5 ng/mL, simple average if tested more than once
Procedure, shortened: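 Titrated compound plus recombinant human IL-17A (pre-incubated 1 h, rt) were applied to adult human keratinocytes at 5 ng/mL cytokine, 0.2% DMSO. Cultures ran 24 h at 37° C, and supernatant G-CSF was measured by HTRF to derive IC50.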

Chain of UniProt Q16552 (Q16552 with tags, fused parts or gaps K93Q): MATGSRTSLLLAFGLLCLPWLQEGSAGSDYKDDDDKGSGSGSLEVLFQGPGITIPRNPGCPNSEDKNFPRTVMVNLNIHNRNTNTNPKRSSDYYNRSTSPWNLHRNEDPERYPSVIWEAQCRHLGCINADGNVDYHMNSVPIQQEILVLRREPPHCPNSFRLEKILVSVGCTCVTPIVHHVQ

Structure (SMILES)	IC50 [1]	IC50 ([2]; Homo sapiens, Keratinocyte)	IC50 [2]
Cc1nonc1C(=O)N[C@H](c1cn2ncc(C(NC(=O)CC3CC(F)(F)C3)C3(C#N)CC3)cc2n1)C1CCC(F)(F)CC1 (single isomer, unassigned) [Example 423, N—((S)-(7-((S*)-(1-Cyanocyclopropyl)(2-(3,3-difluorocyclobutyl)acetamido)methyl)imidazo[1,2-b]pyridazin-2-yl)(4,4-difluorocyclohexyl)methyl)-4-methyl-1,2,5-oxadiazole-3-carboxamide]	78 nM	130 nM	
CC(C)Oc1nocc1C(=O)N[C@H](c1cn2ncc([C@H](NC(=O)CCC(F)F)C3CC3)cc2n1)C1CCC(F)(F)CC1 [Example 302, N—((S)-(7-((R)-Cyclopropyl(4,4-difluorobutanamido)methyl)imidazo[1,2-b]pyridazin-2-yl)(4,4-difluorocyclohexyl)methyl)-3-isopropoxyisoxazole-4-carboxamide]	1200 nM	> 20000 nM	
COc1cccc(C(=O)N[C@H](c2cn3ncc([C@H](NC(=O)CCC(F)(F)F)C4CC4)cc3n2)C2CCC(F)(F)CC2)n1 [Example 226, N—((S)-(7-((R)-Cyclopropyl(4,4,4-trifluorobutanamido)methyl)imidazo[1,2-b]pyridazin-2-yl)(4,4-difluorocyclohexyl)methyl)-6-methoxypicolinamide]	2500 nM	> 20000 nM	
O=C(N[C@H](c1cn2ncc([C@H](NC(=O)C(F)(F)CC3CC3)C3CC3)cc2n1)C1CCC(F)(F)CC1)c1nonc1C1CC1 [Example 411, 4-Cyclopropyl-N—((S)-(7-((R)-cyclopropyl(3-cyclopropyl-2,2-difluoropropanamido)methyl)imidazo[1,2-b]pyridazin-2-yl)(4,4-difluorocyclohexyl)methyl)-1,2,5-oxadiazole-3-carboxamide]	78 nM	49 nM	
O=C(CCC(F)(F)F)N[C@@H](c1cnn2cc([C@@H](NC(=O)c3cnn(CCN4CC(F)(F)C4)n3)C3CCC(F)(F)CC3)nc2c1)C1CC1 [Example 485, N—[(S)-[7-[(R)-Cyclopropyl-(4,4,4-trifluorobutanamido)methyl]imidazo[1,2-b]pyridazin-2-yl]-(4,4-difluorocyclohexyl)methyl]-2-[2-(3,3-difluoroazetidin-1-yl)ethyl]triazole-4-carboxamide]	920 nM	310 nM	
Cc1nonc1C(=O)N[C@H](c1cn2ncc([C@H](NC(=O)[C@H]3CC[C@@H]3F)C3CC3)cc2n1)C1CCC(F)(F)CC1 (relative stereo) [Example 334, N—((S)-(7-((R)-Cyclopropyl((1R*,2S*)-2-fluorocyclobutane-1-carboxamido)methyl)imidazo[1,2-b]pyridazin-2-yl)(4,4-difluorocyclohexyl)methyl)-4-methyl-1,2,5-oxadiazole-3-carboxamide]	4400 nM	> 20000 nM	
Cc1nonc1C(=O)N[C@H](c1cn2ncc(C(NC(=O)CC3(C(F)(F)F)CC3)C3(C#N)CC3)cc2n1)C1CCC(F)(F)CC1 (single isomer, unassigned) [Example 432, N—((S)-(7-((R*)-(1-Cyanocyclopropyl)(2-(1-(trifluoromethyl)cyclopropyl)acetamido)methyl)imidazo[1,2-b]pyridazin-2-yl)(4,4-difluorocyclohexyl)methyl)-4-methyl-1,2,5-oxadiazole-3-carboxamide]	3700 nM		> 20000 nM
O=C(CCC(F)(F)F)N[C@@H](c1cnn2cc([C@@H](NC(=O)c3ncccc3OCC(F)(F)F)C3CCC(F)(F)CC3)nc2c1)C1CC1 [Example 419, N—((S)-(7-((R)-Cyclopropyl(4,4,4-trifluorobutanamido)methyl)imidazo[1,2-b]pyridazin-2-yl)(4,4-difluorocyclohexyl)methyl)-3-(2,2,2-trifluoroethoxy)picolinamide]	1300 nM	> 20000 nM	
Cc1nonc1C(=O)N[C@H](c1cn2ncc([C@H](NC(=O)[C@@H]3CC[C@H]3F)C3CC3)cc2n1)C1CCC(F)(F)CC1 (relative stereo) [Example 335, N—((S)-(7-((R)-Cyclopropyl((1S*,2R*)-2-fluorocyclobutane-1-carboxamido)methyl)imidazo[1,2-b]pyridazin-2-yl)(4,4-difluorocyclohexyl)methyl)-4-methyl-1,2,5-oxadiazole-3-carboxamide]	7500 nM	> 20000 nM	

Continued, in another order:

IC50 [1]	Structure (SMILES)	IC50 ([2]; Homo sapiens, Keratinocyte)	IC50 [2]
260 nM	CC(C)n1nccc1C(=O)N[C@H](c1cn2ncc(C(NC(=O)CC3CC(F)(F)C3)C(F)(F)F)cc2n1)C1CCC(F)(F)CC1 (single isomer, unassigned) [Example 422, N—((S)-(7-((S*)-1-(2-(3,3-Difluorocyclobutyl)acetamido)-2,2,2-trifluoroethyl)imidazo[1,2-b]pyridazin-2-yl)(4,4-difluorocyclohexyl)methyl)-1-isopropyl-1H-pyrazole-5-carboxamide]	82 nM	
390 nM	O=C(CCC(F)(F)F)N[C@@H](c1cnn2cc([C@@H](NC(=O)C3(F)CC3)C3CCC(F)(F)CC3)nc2c1)C1CC1 [Example 60, N—((S)-(7-((R)-Cyclopropyl(4,4,4-trifluorobutanamido)methyl)imidazo[1,2-b]pyridazin-2-yl)(4,4-difluorocyclohexyl)methyl)-1-fluorocyclopropane-1-carboxamide]	3500 nM	
150 nM	O=C(CCC(F)(F)F)N[C@@H](c1cnn2cc([C@@H](NC(=O)c3cnn(CCF)n3)C3CCC(F)(F)CC3)nc2c1)C1CC1 [Example 107, N—((S)-(7-((R)-Cyclopropyl(4,4,4-trifluorobutanamido)methyl)imidazo[1,2-b]pyridazin-2-yl)(4,4-difluorocyclohexyl)methyl)-2-(2-fluoroethyl)-2H-1,2,3-triazole-4-carboxamide]	970 nM	
14 nM	CC(C)(OC[C@H](NC(=O)c1nonc1C1CC1)c1cn2ncc([C@H](NC(=O)CC3CC(F)(F)C3)C3CCOCC3)cc2n1)C(F)(F)F [Example 540, 4-Cyclopropyl-N—((R)-1-(7-((R)-(2-(3,3-difluorocyclobutyl)acetamido)(tetrahydro-2H-pyran-4-yl)methyl)imidazo[1,2-b]pyridazin-2-yl)-2-((1,1,1-trifluoro-2-methylpropan-2-yl)oxy)ethyl)-1,2,5-oxadiazole-3-carboxamide]	9.6 nM	
85 nM	O=C(CCC(F)(F)F)N[C@@H](c1cnn2cc([C@@H](NC(=O)c3ccc(F)cc3)C3CCC(F)(F)CC3)nc2c1)C1CC1 [Example 182, N—((S)-(7-((R)-Cyclopropyl(4,4,4-trifluorobutanamido)methyl)imidazo[1,2-b]pyridazin-2-yl)(4,4-difluorocyclohexyl)methyl)-4-fluorobenzamide]	510 nM	
110 nM	CC(C)n1nncc1C(=O)N[C@H](c1cn2ncc([C@H](NC(=O)CCC(F)(F)F)C3CC3)cc2n1)C1CCC(F)(F)CC1 [Example 65, N—((S)-(7-((R)-Cyclopropyl(4,4,4-trifluorobutanamido)methyl)imidazo[1,2-b]pyridazin-2-yl)(4,4-difluorocyclohexyl)methyl)-1-isopropyl-1H-1,2,3-triazole-5-carboxamide]	72 nM	
100 nM	Cc1nonc1C(=O)N[C@H](c1cn2ncc(C(NC(=O)CC3(C(F)(F)F)CC3)C3(C#N)CC3)cc2n1)C1CCC(F)(F)CC1 (single isomer, unassigned) [Example 427, N—((S)-(7-((S*)-(1-Cyanocyclopropyl)(2-(1-(trifluoromethyl)cyclopropyl)acetamido)methyl)imidazo[1,2-b]pyridazin-2-yl)(4,4-difluorocyclohexyl)methyl)-4-methyl-1,2,5-oxadiazole-3-carboxamide]		370 nM
950 nM	Cc1nonc1C(=O)N[C@H](c1cn2ncc([C@H](NC(=O)CO[C@H](C)C(F)(F)F)C3CC3)cc2n1)C1CCC(F)(F)CC1 [Example 357, N—((S)-(7-((R)-Cyclopropyl(2-(((R)-1,1,1-trifluoropropan-2-yl)oxy)acetamido)methyl)imidazo[1,2-b]pyridazin-2-yl)(4,4-difluorocyclohexyl)methyl)-4-methyl-1,2,5-oxadiazole-3-carboxamide]	2500 nM	
360 nM	O=C(N[C@H](c1cn2ncc([C@H](NC(=O)[C@@H](O)CC(F)(F)F)C3CC3)cc2n1)C1CCC(F)(F)CC1)c1cnn(CC(F)(F)F)n1 (relative stereo) [Example 31, N—((S)-(7-((R*)-Cyclopropyl((S*)-4,4,4-trifluoro-2-hydroxybutanamido)methyl)imidazo[1,2-b]pyridazin-2-yl)(4,4-difluorocyclohexyl)methyl)-2-(2,2,2-trifluoroethyl)-2H-1,2,3-triazole-4-carboxamide]	1300 nM	
130 nM	CC(C)n1nccc1C(=O)N[C@H](c1cn2ncc([C@H](NC(=O)C[C@H]3C[C@H](F)C3)C3CC3)cc2n1)C1CCC(F)(F)CC1 (single isomer, unassigned) [Example 258]	46 nM	
39 nM	Cc1nonc1C(=O)N[C@H](c1cn2ncc(C(NC(=O)CCC(F)(F)F)C3CCC3)cc2n1)C1CCC(F)(F)CC1 (single isomer, unassigned) [Example 491, N—((S)-(7-((R*)-Cyclobutyl(4,4,4-trifluorobutanamido)methyl)imidazo[1,2-b]pyridazin-2-yl)(4,4-difluorocyclohexyl)methyl)-4-methyl-1,2,5-oxadiazole-3-carboxamide]	85 nM	
